Measured values: US9365851B2, “Spalt-like transcription factor 4 (SALL4) and uses thereof” (National University of Singapore, priority 2011, dated 2016)
Read-outs that look alike come from different tables or passages of the source.

Assays:
[1] = tested on: HDAC; assay: HDAC activity assay of peptide pull-down complex (SNU-398 nuclear extracts); type: biochemical, human; conditions: compared to IgG control
Protocol: Assay was performed with the Fluorescent HDAC Assay Kit (Active Motif) having the following modifications: Following the pull down described in Western Blotting section the proteins bound to the beads were eluted in buffer containing 20 mM HEPES (pH 7.5) 350 mM NaCl, 20% glycerol, 1% Igepal CA-630, 1 mM MgCl2, 5 mM DTT and Protease inhibitors (Sigma). The eluates were used as an HDAC enzyme source in an enzymatic reaction for 2 h at 37 C. The HDAC reactions were performed twice on various samples, and each time in triplicate.
Next tested was whether this wt 12-AA could compete with SALL4 in interacting with NuRD. A hepatocellular carcinoma cell line SNU-398 with abundant SALL4 expression was chosen for the following groups of experiences. Whether the wt 12-AA or its control (Mut and Scr) can bind to HDAC1 and HDAC2, the two NuRD components, was first evaluated. […] The histone deacetylase activity of the peptide pull-down complex was then measured using a Fluorescent Assay kit (Active Motif) (FIG. 1D). […]
First evaluated was whether the wild type peptide or the mutant or scrambled controls could bind to HDAC1 and HDAC2, which comprise part of the NuRD complex 38. […] To test this possibility, the histone deacetylase activity of the peptide pull-down complex was measured using a fluorescent assay kit (FIG. 8C). […]

[2] = tested on: SALL4 interaction with HDAC1; assay: Co-immunoprecipitation of endogenous SALL4 with HDAC1 after peptide treatment (SNU-398); type: binding, human; conditions: SNU-398, anti-SALL4 IP
Source text: FIGS. 9A-9E: The wild type peptide blocks SALL4 repression of PTEN. (9A) Flow cytometry analysis on SNU-398 cells treated with Pep-1 carrier peptide alone (top panel), wild type peptide alone (middle panel), or Pep-1 carrier+peptide (lower panel). […] (9B) Confocal images of the distribution of FITC-labeled peptide in SNU-398 cells treated as shown in (9A). (9C) The endogenous SALL4 interaction with HDAC is blocked by wild type (wt) but not scrambled (scr) peptide. SALL4 was immunoprecipitated from SNU-398 nuclear extracts (1×10^6 cells) pre-treated with wild type or scrambled peptides as indicated using an anti-SALL4 antibody. Immunoprecipitates were analyzed by Western blot using HDAC1 (top panel) or SALL4 (lower panel) antibodies. […] Equal amount of SALL4 protein was present in all samples. In Lane 4 (“10% input”), 10% of the amount of nuclear extract used in lanes 1-3 was subjected to Western blot analysis without immunoprecipitation. […] Enrichment with control IgG was set at 1.
Furthermore, whether wt peptide can compete with endogenous SALL4 in interacting with HDAC1 was tested. SNU-398 cells were treated with wt or Scr peptides. […] This effect was not observed with the SNU-398 cells treated with Scr peptide and HDAC1 was still present in the endogenous SALL4 pull-down (FIG. 2).
Next tested was whether wild type peptide could compete for the interaction of endogenous SALL4 with HDAC1. SNU-398 cells were treated with wild type or scrambled peptides along with the peptide carrier Pep-1.

[3] = tested on: HuH-7 cells; assay: Cell viability assay (MTT/MTS); type: cell-based, human; conditions: HuH-7, 72 h
Protocol: Cell viability assay (MTT) (Invitrogen) was performed according to the manufacturer's instructions. Briefly—10000 cells were seeded in 100 ul medium in 96 well plates. The next day cells were treated as indicated on the figures. At the designated time after the treatment 20 ul of 5 mg/ml MTT solution was added to each well. After 3.5 h incubation at 37 C the medium was removed and the reaction was terminated with a solution of 4 mM HCl, 0.1% Nondet P-40 (NP40) all in isopropanol in dark on orbital shaker for […]. at room temperature. The absorbance was read at 590 nm with a reference filter of 620 nm in Spectromax M3 (ABI) spectrophotometer.
Multiple leukemic and solid tumor cancer cell lines with high or low/no SALL4 expression (FIG. 10A) were chosen to test the biological effect(s) of the wild type peptide. Wild type or scrambled peptide was delivered into tumor cells at various concentrations, and their effects on cells were evaluated 72 hours post-treatment by the MTS cell viability assay. […] The effect of wild type peptide is SALL4-specific, as it had no effect on KBM5, an AML cell line with undetectable endogenous SALL4 expression. We were surprised to see that the wild type peptide had no effect on a high SALL4-expressing endometrioid cancer cell line, AN3CA. This prompted checking whether PTEN, a gene repressed by SALL4 through its interaction with NuRD 27, was present in this cell line. According to the model herein, the function of wild type peptide requires both the expression of SALL4 and intact SALL4 downstream target genes, such as PTEN. In tumor cells with PTEN deletion, even though wild type peptide could compete with endogenous SALL4 in interacting with the HDAC complex, an anti-proliferative effect might not be observed. Therefore, expression of PTEN was evaluated in AN3CA cells along with other cell lines. […]
7000 cells were seeded in each wells of a microtiter plate in 100 μL of complete medium. […] After four hours incubation of the tetrazolium salt, absorbance at 490 nm was read by a microplate reader.

[4] = tested on: PC9 cells; assay: Peptide treatment of lung cancer cells; type: cell-based
Source text: 56B: Cell image after SALL4 knockdown in H522 cells.
A small peptide has been generated to block the oncogenic function of SALL4. […] Therefore, shown herein is that SALL4 plays a crucial role in tumor initiation and development of NSCLC, and targeting SALL4 may provide an innovated therapeutic approach in the treatment of lung cancer.

Row | Substance | HDAC activity of peptide pull-down complex [1] | interaction of endogenous SALL4 with HDAC1 [2] | cell viability [3] | cell viability ([3]; listed as wild type peptide) | cell growth / cell death ([4]; listed as Wt) | cell growth / cell death ([4]; listed as small peptide) | interaction of endogenous SALL4 with HDAC1 ([2]; listed as scrambled peptide) | cell growth / cell death [4]
1 | H-MSRRKQAKPQHI-OH [wt peptide, MSRRKQAKPQHI] | the most HDAC activity | completely abrogated | reduced the cell viability | decreased cell viability | cell growth arrest | resulted in cell death | – | –
2 | Scr peptide: same 12 amino acids as the wt peptide, but in a scrambled sequence; negative control (SRMRQKIHPKIQ) [reference compound] | no HDAC activity | not observed | remained unaffected | – | – | – | does not affect the interaction | no effect on the cells
